Data published in US6376497B1, “Antifungal azole derivatives having a fluorinated vinyl group and process for preparing same” (Korea Research Institute of Chemical Technology, priority 1999, dated 2002).

Key:
Assay in all cases: In vitro antifungal activity, microbroth dilution MIC
Type in all cases: cell-based
[1] = system: Trichophyton mentagrophytes A. 9129; settings: RPMI-1640, 35° C., no growth observed
Summary of the method: (§1)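 Broth microdilution adapted from NCCLS M27, in RPMI-1640 with 0.165 M MOPS, pH 7.0. Yeast or mould inoculum at 2×10^3 CFU/ml was mixed 1:1 with DMSO-derived compound solutions (200 to 0.10 μg/ml before mixing) and incubated at 35 °C for 4 to 48 h. MIC was the concentration showing no growth.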

Candida krusei K. 11655 = settings: RPMI-1640, 35° C., 4 to 48 hours, no growth observed
Summary of the method: as §1

[2] = system: Candida pseudotropicalis K. 11658; settings: RPMI-1640, 35° C., 4 to 48 hours, no growth observed
Summary of the method: as §1

[3] = system: Aspergillus niger A. 16404; settings: RPMI-1640, 35° C., no growth observed
Summary of the method: as §1

[4] = system: Candida parapsitosis A. 7330; settings: RPMI-1640, 35° C., 4 to 48 hours, no growth observed
Summary of the method: as §1

[5] = system: Cryptococcus neoformans B. 42419; settings: RPMI-1640, 35° C., 4 to 48 hours, no growth observed
Summary of the method: as §1

[6] = system: Cryptococcus neoformans A. 34144; settings: RPMI-1640, 35° C., no growth observed
Summary of the method: as §1

[7] = system: Aspergillus furnigatus B. 19119; settings: RPMI-1640, 35° C., no growth observed
Summary of the method: as §1

[8] = system: Cryptococcus neoformans IFM. 40092; settings: RPMI-1640, 35° C., no growth observed
Summary of the method: as §1

[9] = system: Candida albicans A. 10231; settings: RPMI-1640, 35° C., 4 to 48 hours, no growth observed
Summary of the method: as §1

Candida albicans C1-2 = settings: RPMI-1640, 35° C., 4 to 48 hours, no growth observed
Summary of the method: as §1

[10] = system: Candida albicans IFO. 1385; settings: RPMI-1640, 35° C., 4 to 48 hours, no growth observed
Summary of the method: as §1

[11] = system: Candida tropicalis A. 13803; settings: RPMI-1640, 35° C., 4 to 48 hours, no growth observed
Summary of the method: as §1

[12] = system: Trichophyton mentagrophytes B. 32663; settings: RPMI-1640, 35° C., no growth observed
Summary of the method: as §1

[13] = system: Torulopsis glabrata B. 16205; settings: RPMI-1640, 35° C., 4 to 48 hours, no growth observed
Summary of the method: as §1

Row | Compound | Minimal inhibitory concentration(MIC), T. mentagrophytes A. 9129 [1] | Minimal inhibitory concentration(MIC), C. krusei K. 11655 (Candida krusei K. 11655) | Minimal inhibitory concentration(MIC), C. pseudotropicalis K. 11658 [2] | Minimal inhibitory concentration(MIC), A. niger A. 16404 [3] | Minimal inhibitory concentration(MIC), C. parapsitosis A. 7330 [4] | Minimal inhibitory concentration(MIC), Cry. neoformans B. 42419 [5] | Minimal inhibitory concentration(MIC), Cry. neoformans A. 34144 [6] | Minimal inhibitory concentration(MIC), A furnigatus B. 19119 [7] | Minimal inhibitory concentration(MIC), Cry. neoformans IFM. 40092 [8] | Minimal inhibitory concentration(MIC), C. albicans A. 10231 [9] | Minimal inhibitory concentration(MIC), C. albicans C1-2 (Candida albicans C1-2) | Minimal inhibitory concentration(MIC), C. albicans IFO. 1385 [10] | Minimal inhibitory concentration(MIC), C. tropicalis A. 13803 [11] | Minimal inhibitory concentration(MIC), T. mentagrophytes B. 32663 [12] | Minimal inhibitory concentration(MIC), T. glabrata B. 16205 [13]
1 | Cc1cc(C)cc(C(=C(F)N2CCN(c3ccc(OCC4COC(Cn5ccnc5)(c5ccc(F)cc5F)O4)cc3)CC2)C(F)(F)F)c1 (mixture of isomers) [Ex. 141] | 6.25 µg/mL | 1.56 µg/mL | 3.13 µg/mL | >100 µg/mL | 1.56 µg/mL | 0.78 µg/mL | 1.56 µg/mL | 50.0 µg/mL | 0.78 µg/mL | >100 µg/mL | >100 µg/mL | 0.78 µg/mL | >100 µg/mL | 0.78 µg/mL | 100 µg/mL
2 | FC(=C(c1ccc(C(F)(F)F)cc1)C(F)(F)F)N1CCN(c2ccc(OCC3COC(Cn4ccnc4)(c4ccc(F)cc4F)O3)cc2)CC1 (mixture of isomers) [Ex. 142] | 12.5 µg/mL | 6.25 µg/mL | 6.25 µg/mL | 100 µg/mL | 3.13 µg/mL | 3.13 µg/mL | 3.13 µg/mL | 50.0 µg/mL | 0.39 µg/mL | >100 µg/mL | >100 µg/mL | 3.13 µg/mL | >100 µg/mL | 1.56 µg/mL | 100 µg/mL
3 | COc1cccc(C(=C(F)N2CCN(c3ccc(OCC4COC(Cn5ccnc5)(c5ccc(F)cc5F)O4)cc3)CC2)C(F)(F)F)c1 (mixture of isomers) [Ex. 143] | 6.25 µg/mL | 1.56 µg/mL | 6.25 µg/mL | >100 µg/mL | 3.13 µg/mL | 0.39 µg/mL | 3.13 µg/mL | 100 µg/mL | 0.78 µg/mL | >100 µg/mL | >100 µg/mL | 0.39 µg/mL | >100 µg/mL | 0.78 µg/mL | 100 µg/mL
4 | COc1ccc(C(=C(F)N2CCN(c3ccc(OCC4COC(Cn5ccnc5)(c5ccc(F)cc5F)O4)cc3)CC2)C(F)(F)F)cc1 (mixture of isomers) [Ex. 144] | 12.5 µg/mL | 6.25 µg/mL | 1.56 µg/mL | >100 µg/mL | 3.13 µg/mL | 0.39 µg/mL | 3.13 µg/mL | 100 µg/mL | 0.39 µg/mL | >100 µg/mL | >100 µg/mL | 0.39 µg/mL | >100 µg/mL | 1.56 µg/mL | >100 µg/mL
5 | FC(=C(c1ccc2c(c1)OCO2)C(F)(F)F)N1CCN(c2ccc(OCC3COC(Cn4ccnc4)(c4ccc(F)cc4F)O3)cc2)CC1 (mixture of isomers) [Ex. 145] | 6.25 µg/mL | 1.56 µg/mL | 3.13 µg/mL | 100 µg/mL | 3.13 µg/mL | 0.78 µg/mL | 3.13 µg/mL | 100 µg/mL | 0.78 µg/mL | >100 µg/mL | >100 µg/mL | 0.78 µg/mL | >100 µg/mL | 1.56 µg/mL | 100 µg/mL
6 | FC(=C(c1ccc(Oc2ccccc2)cc1)C(F)(F)F)N1CCN(c2ccc(OCC3COC(Cn4ccnc4)(c4ccc(F)cc4F)O3)cc2)CC1 (mixture of isomers) [Ex. 146] | 12.5 µg/mL | 0.78 µg/mL | 0.39 µg/mL | 100 µg/mL | 1.56 µg/mL | 0.78 µg/mL | 1.56 µg/mL | 100 µg/mL | 0.78 µg/mL | >100 µg/mL | >100 µg/mL | 0.78 µg/mL | >100 µg/mL | 1.56 µg/mL | 100 µg/mL
7 | FC(=C(c1cccc(F)c1)C(F)(F)F)N1CCN(c2ccc(OCC3COC(Cn4ccnc4)(c4ccc(F)cc4F)O3)cc2)CC1 (mixture of isomers) [Ex. 147] | 3.13 µg/mL | 0.39 µg/mL | 0.39 µg/mL | 100 µg/mL | 0.78 µg/mL | 0.78 µg/mL | 0.78 µg/mL | 12.5 µg/mL | ≦0.10 μg/ml | >100 µg/mL | >100 µg/mL | 0.78 µg/mL | >100 µg/mL | ≦0.10 μg/ml | 50.0 µg/mL
